Test [1] addresses Somatostatin receptor type 4 (Homo sapiens, UniProt P31391). Conditions: IC50 (nM).
The target in test [2] is Somatostatin receptor type 3 (Homo sapiens, UniProt P32745).
Test [3] concerns the target Somatostatin receptor type 5 (Homo sapiens, UniProt P35346).

Structures are written as SMILES. “And” between values parts separate entries of the source, which are not always exact repeats. Identical values can stand only once. Starred links: 1 amine or outer side, 2 acyl side, 3 side chain; linkers in the order of their positions; H or OH if unused. Positions of bridges follow the written chain, without caps; N, C: chain ends. Non-standard residues stand in square brackets, D forms with d. Residues, ends and D or L forms follow the SMILES beside them. *: point of attachment. pNA = O=[N+]([O-])c1ccc(N*)cc1; Nle = CCCC[CH](N)C(=O)O; CO = O=C([*:1])[*:2]

Sequence of Somatostatin receptor type 5 (P35346 whole entry): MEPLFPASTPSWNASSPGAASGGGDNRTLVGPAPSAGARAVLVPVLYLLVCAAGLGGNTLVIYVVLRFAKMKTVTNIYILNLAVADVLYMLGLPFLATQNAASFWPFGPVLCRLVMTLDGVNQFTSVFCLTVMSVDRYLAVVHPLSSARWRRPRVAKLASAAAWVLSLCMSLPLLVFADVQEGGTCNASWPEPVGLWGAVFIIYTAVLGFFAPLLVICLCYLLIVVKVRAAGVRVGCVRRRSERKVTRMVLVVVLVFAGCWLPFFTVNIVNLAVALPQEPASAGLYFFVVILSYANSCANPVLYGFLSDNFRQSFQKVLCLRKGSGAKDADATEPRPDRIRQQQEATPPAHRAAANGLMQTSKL
Sequence of Somatostatin receptor type 4 (P31391 whole entry): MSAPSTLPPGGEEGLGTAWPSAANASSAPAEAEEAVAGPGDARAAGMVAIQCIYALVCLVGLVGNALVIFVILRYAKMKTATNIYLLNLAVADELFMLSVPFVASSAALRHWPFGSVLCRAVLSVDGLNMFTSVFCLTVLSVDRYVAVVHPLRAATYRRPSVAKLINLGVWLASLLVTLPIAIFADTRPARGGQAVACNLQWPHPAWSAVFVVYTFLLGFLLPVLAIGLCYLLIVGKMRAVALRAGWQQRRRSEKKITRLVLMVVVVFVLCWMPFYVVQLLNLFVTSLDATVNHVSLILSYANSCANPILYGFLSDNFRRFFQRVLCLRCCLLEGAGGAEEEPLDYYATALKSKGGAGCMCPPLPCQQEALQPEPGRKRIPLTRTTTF
Sequence of Somatostatin receptor type 3 (P32745 whole entry): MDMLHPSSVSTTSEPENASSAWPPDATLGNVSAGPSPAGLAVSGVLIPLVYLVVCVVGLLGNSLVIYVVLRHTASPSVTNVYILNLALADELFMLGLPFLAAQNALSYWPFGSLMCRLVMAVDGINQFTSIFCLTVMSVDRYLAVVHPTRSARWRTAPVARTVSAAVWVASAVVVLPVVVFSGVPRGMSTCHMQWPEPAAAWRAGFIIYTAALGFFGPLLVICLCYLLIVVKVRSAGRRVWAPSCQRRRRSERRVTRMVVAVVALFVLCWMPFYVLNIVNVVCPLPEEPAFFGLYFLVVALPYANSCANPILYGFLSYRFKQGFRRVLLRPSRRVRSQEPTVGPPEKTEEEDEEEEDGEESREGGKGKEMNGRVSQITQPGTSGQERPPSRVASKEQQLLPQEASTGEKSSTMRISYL

As to `C[C@@H](O)[C@@H]1NC(=O)[C@H](CCCCN)NC(=O)[C@@H](NC(=O)c2ccc3ccccc3c2)NC(=O)[C@H](Cc2ccccc2)NC(=O)[C@H](Cc2ccccc2)NC(=O)[C@@H](N)CSSC[C@@H](C(=O)O)NC(=O)[C@H](Cc2ccccc2)NC1=O` [des-AA 1,2,4,5,12,13[D-2Nal8]-SS (ODN-8)], the IC50 (commonly the concentration at which inhibition is half-maximal) in test [1] was 165 nM.

In the case of `C[C@@H](O)[C@@H]1NC(=O)[C@H](CCCCN)NC(=O)[C@@H](N(C)C(=O)c2ccc3ccccc3c2)NC(=O)[C@H](Cc2ccc(O)cc2)NC(=O)[C@H](Cc2ccccc2)NC(=O)[C@H](N)CSSC[C@@H](C(=O)O)NC(=O)[C@H](Cc2ccccc2)NC1=O` [des-AA 1,2,4,5,12,13[D-Cys3,Tyr7, D-Agl8(Me,2-naphthoyl)]-SS], the IC50 in test [2] is 0.039 µM; in test [1], > 10000 nM and 1000 nM; in test [3], over 10 µM.

In the case of `C[C@@H](O)[C@@H]1NC(=O)[C@H](CCCCN)NC(=O)[C@@H](N(C)C(=O)c2ccc3ccccc3c2)NC(=O)[C@H](Cc2ccccc2)NC(=O)[C@H](Cc2ccccc2)NC(=O)[C@H](N)CSSC[C@@H](C(=O)O)NC(=O)[C@H](Cc2ccccc2)NC1=O` [des-AA 1,2,4,5,12,13[D-Cys3, D-Agl8(Me,2-naphthoyl)]-SS], the results for the IC50 in test [2] and in test [1] were 0.115 µM and over 10000 nM, respectively.

On to `C[C@@H](O)[C@@H]1NC(=O)[C@H](CCCCN)NC(=O)[C@@H](Cc2c[nH]c3ccccc23)NC(=O)[C@H](Cc2ccccc2)NC(=O)[C@H](Cc2ccccc2)NC(=O)[C@@H](N)CSSC[C@@H](C(=O)O)NC(=O)[C@H](Cc2ccccc2)NC1=O` [H-c(Cys3-Phe6-Phe7-DTrp8-Lys9-Thr10-Phe11-Cys14)-OH] (H-CFF[dW]KTFC-OH; disulfide 1-8), for which the IC50 came out at 0.013 µM in test [2], 1.3 nM in test [1] and 0.045 µM in test [3].

Regarding `CSCC[C@H](NC(=O)[C@H](CCCN=C(N)N)NC(=O)[C@@H](N)CC(=O)O)C(=O)N1CCC[C@H]1C(=O)N[C@H]1CSSC[C@@H](C(=O)N[C@@H](CCCCN)C(=O)O)NC(=O)[C@H](CO)NC(=O)[C@H](CO)NC(=O)[C@H](Cc2ccccc2)NC(=O)[C@H]([C@@H](C)O)NC(=O)[C@H](CCCCN)NC(=O)[C@H](Cc2c[nH]c3ccccc23)NC(=O)[C@H](Cc2ccccc2)NC(=O)[C@H](Cc2ccccc2)NC(=O)[C@H](CC(N)=O)NC(=O)[C@H](CCCN=C(N)N)NC1=O` [Cortistatin], the IC50 came to 0.0068 µM in test [2], 2.5 nM in test [1] and 0.013 µM in test [3].

For the molecule `C[C@@H](O)[C@@H]1NC(=O)[C@H](CCCCN)NC(=O)[C@@H](N(C)C(=O)c2ccc3ccccc3c2)NC(=O)[C@H](Cc2ccc(O)cc2)NC(=O)[C@H](Cc2ccccc2)NC(=O)[C@H](NC(N)=O)CSSC[C@@H](C(=O)O)NC(=O)[C@H](Cc2ccccc2)NC1=O` [Carbamoyl-des-AA 1,2,4,5,12,13[D-Cys3,Tyr7, D-Agl8(Me,2-naphthoyl)]-SS(sst3-ODN-8)], the IC50 in test [2] is 0.0067 µM; in test [1] it was over 10000 nM; in test [3], over 10 µM.

For `C[C@@H](O)[C@@H]1NC(=O)[C@H](CCCCN)NC(=O)[C@@H](N(C)C(=O)c2ccc3ccccc3c2)NC(=O)[C@H](Cc2ccccc2)NC(=O)[C@H](Cc2ccccc2)NC(=O)[C@@H](N)CSSC[C@@H](C(=O)O)NC(=O)[C@H](Cc2ccccc2)NC1=O` [des-AA 1,2,4,5,12,13[DAgl8(Me,2-naphthoyl)]-SS], the IC50 in test [2] was 0.07 µM; in test [1], over 10000 nM; in test [3], over 10 µM.

As to `CCCCC(NC(=O)NC(Cc1ccccc1)C(=O)Nc1ccc([N+](=O)[O-])cc1)C(=O)NC(CCCCN)C(=O)OC` (stereo unspecified) [CAS_5311373] ({pNA-Phe-CO}-[Nle]-Lys-OMe; configuration not given here), the values for the IC50 in test [2], in test [1] and in test [3] were 0.127 µM, over 10000 nM and over 10 µM, respectively.

Values taken from BindingDB's records for doi:10.1073/pnas.250483897 (University of Berne, 2000).
